{"source": "ChEMBL document CHEMBL4052669", "about": "“Synthesis, molecular modelling and CYP24A1 inhibitory activity of novel of (E)-N-(2-(1H-imidazol-1-yl)-2-(phenylethyl)-3/4-styrylbenzamides” (Bioorg Med Chem, 2017)", "data": [{"target": "T1, 1,25-dihydroxyvitamin D(3) 24-hydroxylase, mitochondrial (Homo sapiens, UniProt Q07973)", "T1 sequence (Q07973 whole entry)": "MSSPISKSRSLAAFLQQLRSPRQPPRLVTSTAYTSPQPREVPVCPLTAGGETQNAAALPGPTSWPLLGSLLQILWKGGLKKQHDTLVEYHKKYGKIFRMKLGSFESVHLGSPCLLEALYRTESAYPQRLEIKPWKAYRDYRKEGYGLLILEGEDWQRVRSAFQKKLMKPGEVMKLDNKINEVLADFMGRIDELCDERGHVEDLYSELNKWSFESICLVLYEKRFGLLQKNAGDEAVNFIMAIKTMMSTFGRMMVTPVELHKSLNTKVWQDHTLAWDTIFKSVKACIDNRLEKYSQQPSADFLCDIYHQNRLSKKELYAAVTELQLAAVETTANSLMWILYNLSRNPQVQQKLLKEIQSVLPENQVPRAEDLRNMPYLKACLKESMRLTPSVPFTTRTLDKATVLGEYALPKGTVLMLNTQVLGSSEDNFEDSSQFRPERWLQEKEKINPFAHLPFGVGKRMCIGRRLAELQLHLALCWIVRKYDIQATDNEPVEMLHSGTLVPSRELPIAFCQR", "test": "Inhibition of MBP-tagged human CYP24A1 expressed Escherichia coli BL21-Gold(DE3) incubated for 25 mins in presence of Adx, AdR 1,25(OH)2D3 and NADPH by HPLC method", "units": {"IC50": "nM"}, "values": [{"smiles": "COc1ccc(/C=C/c2ccc(C(=O)NCC(c3ccc(Cl)cc3)n3ccnc3)cc2)cc1OC", "note": "(stereo not given)", "IC50": 120}, {"smiles": "O=C(NCC(c1ccccc1C(F)(F)F)n1ccnc1)c1ccc(/C=C/c2ccccc2)cc1", "note": "(stereo not given)", "IC50": 350}, {"smiles": "O=C(NCC(c1ccc(Cl)cc1)n1ccnc1)c1cccc(/C=C/c2ccccc2)c1", "note": "(stereo not given)", "IC50": 160}, {"smiles": "O=C(NCC(c1ccc(C(F)(F)F)cc1)n1ccnc1)c1ccc(/C=C/c2ccccc2)cc1", "note": "(stereo not given)", "IC50": 180}, {"smiles": "Cc1ccc(C(CNC(=O)c2ccc(/C=C/c3ccccc3)cc2)n2ccnc2)cc1C", "note": "(stereo not given)", "IC50": 310}, {"smiles": "O=C(NCC(c1ccccc1)n1ccnc1)c1cccc(/C=C/c2ccccc2)c1", "note": "(stereo not given)", "IC50": 190}, {"smiles": "O=C(NCC(c1ccc(C(F)(F)F)cc1)n1ccnc1)c1cccc(/C=C/c2ccccc2)c1", "note": "(stereo not given)", "IC50": 150}, {"smiles": "COc1ccc(C(CNC(=O)c2ccc(/C=C/c3ccccc3)cc2)n2ccnc2)cc1", "note": "(stereo not given)", "IC50": 110}, {"smiles": "O=C(NCC(c1ccccc1)n1ccnc1)c1cccc(/C=C/c2ccccc2C(F)(F)F)c1", "note": "(stereo not given)", "IC50": 340}, {"smiles": "O=C(NCC(c1ccc(Cl)cc1)n1ccnc1)c1ccc(/C=C/c2ccccc2)cc1", "note": "(stereo not given)", "IC50": 210}]}]}
